Laboratory results reported in US5229364A, “Polypeptides derived from the human immunodeficiency virus endonuclease protein” (priority 1991, dated 1993).

What was measured:
[1] = tested on: sera obtained from HIV-2 infected individuals; experiment: Peptide ELISA with sera from HIV-2 infected individuals; assay type: binding, human; conditions: data not shown
Method: The peptide ELISA was performed as follows. Microtiter plate wells (Linbro, Flow, Scotland) were coated with peptide (1 μg/well) resuspended in 0.01 M carbonate buffer at room temperature overnight. Thereafter, the plates wells were blocked with 5% bovine serum albumin. 100 μl of reagents were used per well. Five washings (0.9% NaCl and 0.005% Tween 20 in distilled water) were performed between the different steps of the ELISA procedure. Positive sera and controls were diluted 1/100 and incubated in the plates for one hour at 37° C. Peroxidase conjugated immunoglobulins to human IgG y-chains (Dakopatts; Denmark) diluted 1/2000 were added (1 hour, 37° C.). 1,2 phenylene diaminedihydrochloride was used as substrate. The reaction was allowed to continue for ten minutes and then stopped with 3 M H2 SO4. […] The mean optic density plus three times S.D. for peptide End 10 was 0.8.
The corresponding region in the genome of HIV-2 (Table 1) and simian immunodeficiency virus (SIV) is also very conserved. […] Some amino-acid stretches are, however, completely conserved among the different serotypes. Because of this observation, the HIV-1 peptide End 10 was also tested with 30 sera obtained from HIV-2 infected individuals.

[2] = tested on: HIV-1 antibody positive sera; experiment: Peptide ELISA with HIV-1 antibody positive sera; assay type: binding, human; conditions: 33 HIV-1 antibody positive sera diluted 1/100; peptide 1 μg/well; absorbance 490 nm; positive = above mean of negative sera plus three S.D.
Method: FIG. 1 illustrates the reactivity of sera from HIV-1 infected and non-infected individuals to selected HIV-1 endonuclease peptides. Thirty-three HIV-1 antibody positive sera (filled symbols) and fourteen control sera (open symbols) were analyzed in ELISA with peptides representing the HIV-1 endonuclease protein (6). Amino acid sequences were derived from the HIV-1 consensus sequence and are shown at the bottom of the picture (abscissa). Uppercase letters indicate consensus amino acids, whereas less conserved amino acids are indicated with lowercase letters. Absorbance values at 490 nm are indicated in the ordinate. Three of the sera belonged to infected individuals classified as CDC 1 (7), thirteen to CDCII, seven to CDC III and ten to CDC IV. Becaused reactivity to other regions than the one represented by End 10 was very low, only results of a selected number of peptides is shown in the figure. FIG. 2 illustrates the reactivity of HIV-1 antobidy positive and control sera to an End 10 set of 18 glycine (G) substitution peptides. Filled symbols show mean optical density for 13 antibody positive sera. The corresponding values for four negative sera are shown by open symbols. Vertical bars represent standard deviation values. The mean reactivity to intact peptide End 10 was chosen to represent 100% of activity and reactivity to the substituted peptides is expressed in relation to this. […]

Sequence: ETGQETAYFLLKLAGRWPVK [End 10, 20-residue peptide of HIV-1 endonuclease, starting at position 655 of the pol consensus]
- intensity of the reactions with HIV-2 sera relative to HIV-1 sera ([1]; 30 HIV-2 sera): comparable
- reactivity in ELISA with HIV-2 sera ([1]; 30 sera from HIV-2 infected individuals): reacted strongly
- reactivity in ELISA with HIV-1 antibody positive sera [2]: reacted strongly
